Measurements: patent US20230382851A1, “GAMMA-HYDRO[…] AND PROCESSES FOR MAKING AND USING THEM” (Zevra Therapeutics, Inc., priority 2022, published 2023)

Assay: Pharmacokinetics of GHB in plasma after oral gavage of GHB delivering compounds; relative oral bioavailability vs sodium oxybate
Conditions: vehicle water
[1] = molar equivalent of 100 mg/kg NaGHB
[2] = dose equivalent to 80 mg/kg NaGHB

SMILES	% AUC0-4 hr vs study comparator (sodium oxybate) [1] [%]	% Cmax vs study comparator (sodium oxybate) [1] [%]	% AUC0-4 hr vs study comparator (sodium oxybate) [2] [%]	% Cmax vs study comparator (sodium oxybate) [2] [%]
O=C1CCCO1 [GBL]	27	70	–	–
CCOC(=O)OCCCC(=O)O [O-(ethoxycarbonyl)-GHB, O-(Ethoxycarbonyl)-GHB]	–	–	54	51
